Results reported in publication PMC7503370, “Cellular Signaling and Anti-Apoptotic Effects of Prolactin-Releasing Peptide and Its Analog on SH-SY5Y Cells” (International Journal of Molecular Sciences, 2020).
Numbered stars: 1 amine (or outer) side, 2 acyl side, 3 side chain; on linkers, the order of the positions; unused ones are H or OH. Side chains are listed from the residue outwards. Peptide text beside a SMILES is read from it. * marks the point of attachment. γGlu = O=C(O)[C@H](CCC(=O)[*:2])N[*:1]; Palmitoyl = CCCCCCCCCCCCCCCC(=O)*

Key:
Type in all cases: cell-based, human
[1] = tested on: ERK-CREB signaling pathway in SH-SY5Y cells; assay: Western blotting of ERK-CREB signaling pathway after 8 min incubation; conditions: 1 × 10^−5 M, 37 °C, vs control cells (medium alone), normalized to GAPDH, n = 3, triplicates
Description: Figure 2 PrRP31 and palm^11-PrRP31 increased phosphorylation of extracellular signal-regulated kinase/cAMP response element-binding protein (ERK-CREB) signaling pathway in SH-SY5Y cells. Immunoblots: (a) and their quantifications: (b). SH-SY5Y cells were incubated either with PrRP31 and its palmitoylated analog and scrambled at a final concentration 1 × 10^−5 M, or with insulin at the final concentration 1 × 10^−7 M at 37 °C for 8 min, or medium alone. Activation was expressed as the ratio of the activated protein to the total amount of the protein, both normalized to loading control, GAPDH. Data are presented as the means ± SEM as a percentage of control cells treated with medium alone analyzed by one-way ANOVA followed by the Dunnett post hoc test, * p < 0.5, ** p < 0.01, **** p < 0.0001 (n = 3, each sample in triplicates).
(§1) For the investigation of the molecular mechanism of PrRP31 and its analog in the cells, signaling pathways were studied by Western blotting (WB). The cells were cultured in 6-well plates at a density of 800,000 cells per well. Growth medium was exchanged for serum-free DMEM 16 h before an experiment, and then, the cells were incubated with PrRP31, palm^11-PrRP31, or scrambled peptide at a final concentration of 1 × 10^−5 M or insulin at a concentration of 1 × 10^−7 M at 37 °C for 8 min. The cells were rapidly cooled on ice and lysed in 400 µl of Laemmli sample buffer (62.5 mM Tris-HCl with pH 6.8, 2% SDS, 10% glycerol, 0.01% bromophenol blue, 5% mercaptoethanol, 50 mM NaF, and 1 mM Na3VO4) and stored at −20 °C. Afterward, the cell lysates were analyzed by WB. SDS-electrophoresis and WB were carried out using a Criterion system with a 26-well 4−15% Criterion^TM TGX^TM Precast Midi Protein Gel (Bio-Rad, Hercules, CA, USA) at a constant voltage of 200 V or 100 V, respectively.
(§2) Subsequently, the membranes were incubated overnight with primary antibody (Ab) at 4 °C, according to the manufacturer´s instructions (Table 2). The next day, the membranes were incubated with an HRP-linked secondary antibody for 1 h at room temperature. Chemiluminescence was visualized with a ChemiDoc^TM System (Bio-Rad). Band intensities were normalized using glyceraldehyde 3-phosphate dehydrogenase (GAPDH) as an internal loading control.
Eight minutes of incubation was performed in a series of experiments with different exposure times (5, 10, 15, 30, and 60 min) to PrRP31 and its palmitoylated analog. Activation of analogs was strongest after 10 min. Then, the cells were treated with inhibitors of signaling pathways for 2 min, and analogs were added for 8 min. […] Activation is expressed as the ratio of the activated protein to the total amount of the protein. […]

SH-SY5Y cells = assay: Treatment with peptides after 16 h exposure to MG, MTT cell viability; conditions: 1.2 mM MG 16 h, then 4 h treatment 1 × 10^−5 M, n = 3, octuplicates
Description: Treatment for 4 h with PrRP31 and palm^11-PrRP31 at a concentration of: (a) 1 × 10^−5 M; after exposure to 1.2 mM MG for 16 h in SH-SY5Y cells. Treatment for 4 h with PrRP31 and palm^11-PrRP31 at a concentration of: (b) 1 × 10^−5 M; (c) 1 × 10^−7 M, after exposure to 0.6 mM MG for 16 h in SH-SY5Y cells. MG toxicity measured with MTT assay. Data are presented as the means ± SEM as a percentage of control cells treated with vehicle analyzed by a Student´s t-test vs. 0.6 mM MG ## p < 0.01, ### p < 0.001, #### p < 0.0001 (n = 3, each sample in octuplicates). Control vs. 0.6 mM MG analyzed by a Student´s t-test, * p < 0.5, ** p < 0.01.
The MTT test was used to measure cell viability. The MTT reagent was dissolved in RPMI-1640 without phenol red. Cells were incubated for 2 h with a 10% solution of MTT at 37 °C. Living cells converted soluble MTT to insoluble formazan, which was subsequently dissolved in DMSO. The absorbance was measured at a wavelength of 560 nm.
For this assay, cells were cultured in 96-well plates at a density of 40,000 cells per well. The growth medium was exchanged for serum-free DMEM 16 h before the experiment. First, the cells were pretreated with 1 × 10^−5 M or 1 × 10^−7 M PrRP31 or palm^11-PrRP31 (in octuplicates) for 4 h to prevent MG cytotoxic effects; then, MG was added to a final concentration of 0.6 mM or 1.2 mM. The cells were incubated at 37 °C for 16 h. […]

[2] = tested on: p-c-Jun, p-ERK, p-Bad, Bax/Bcl-2 in SH-SY5Y cells; assay: Western blotting of anti-apoptotic signaling in MG-stressed cells; conditions: 4 h pretreatment 1 × 10^−5 M, then 0.6 mM MG 16 h, vs MG, triplicates; for decrease of the MG-increased level of p-Bad (Ser112)/Bad / decrease of the MG-increased level of p-Bad (Ser136)/Bad / decrease of the MG-increased level of p-c-Jun (Ser73)/c-Jun: normalized to GAPDH
Description: Figure 7 PrRP31 and palm^11-PrRP31 affected anti-apoptotic signaling in SH-SY5Y cells. Immunoblots: (a) and their quantifications: (b). SH-SY5Y cells were pretreated with PrRP31 and palm^11-PrRP31 at a concentration of 1 × 10^−5 M for 4 h and then stressed with 0.6 mM MG for 16 h. Activation was expressed as the ratio of the activated protein to the total amount of the protein, both normalized to loading control, GAPDH. Data are presented as the means ± SEM as a percentage of control cells treated with medium alone. Analysis is made vs. MG by a Student’s t-test, * p < 0.5, ** p < 0.01 (each sample in triplicates).
as §1, §2
For analysis of the molecular mechanism during MG stress, the growth medium was exchanged for serum-free DMEM 16 h before the experiment. The cells were pretreated with 1 × 10^−5 M PrRP31 or palm^11-PrRP31 for 4 h; then, MG was added to a final concentration of 0.6 mM, and the cells were incubated at 37 °C for 16 h. The controls and compounds were tested in triplicate.

| SMILES | increase of p-CREB (Ser133)/CREB [1] [%] | increase of p-ERK (Thr 202/Tyr204)/ERK [1] [%] | change of cell viability compared to cells administered with 1.2 mM MG (SH-SY5Y cells) | decrease of the MG-increased level of p-Bad (Ser112)/Bad [2] | decrease of the MG-increased level of p-Bad (Ser136)/Bad [2] | decrease of the MG-increased level of p-c-Jun (Ser73)/c-Jun [2] | attenuation of the MG-increased ratio of Bax/Bcl−2 [2] [%] |
| --- | --- | --- | --- | --- | --- | --- | --- |
| CC[C@H](C)[C@H](NC(=O)CNC(=O)[C@H](CCCNC(=N)N)NC(=O)[C@H](CO)NC(=O)[C@H](C)NC(=O)[C@H](Cc1ccc(O)cc1)NC(=O)[C@H](Cc1c[nH]c2ccccc12)NC(=O)[C@H](C)NC(=O)[C@@H]1CCCN1C(=O)[C@H](CC(N)=O)NC(=O)[C@@H](NC(=O)[C@H](CC(=O)O)NC(=O)[C@@H]1CCCN1C(=O)[C@@H](NC(=O)[C@H](CCCNC(=N)N)NC(=O)[C@@H](NC(=O)[C@H](CCC(=O)O)NC(=O)[C@H](CCSC)NC(=O)[C@H](CO)NC(=O)[C@H](Cc1c[nH]cn1)NC(=O)[C@H](CCCNC(=N)N)NC(=O)[C@H](Cc1c[nH]cn1)NC(=O)[C@@H](NC(=O)[C@H](CCCNC(=N)N)NC(=O)[C@@H](N)CO)[C@@H](C)O)[C@@H](C)CC)[C@@H](C)O)[C@@H](C)CC)C(=O)N[C@@H](CCCNC(=N)N)C(=O)N1CCC[C@H]1C(=O)N[C@H](C(=O)NCC(=O)N[C@@H](CCCNC(=N)N)C(=O)N[C@@H](Cc1ccccc1)C(N)=O)C(C)C [PrRP31] | 68 | 36 | nonsignificant increase | tended to decrease | tended to decrease | tended to decrease |  |
| CCCCCCCCCCCCCCCC(=O)N[C@@H](CCC(=O)NCCCC[C@H](NC(=O)[C@@H](NC(=O)[C@H](CCC(=O)O)NC(=O)[C@H](CCSC)NC(=O)[C@H](CO)NC(=O)[C@H](Cc1c[nH]cn1)NC(=O)[C@H](CCCNC(=N)N)NC(=O)[C@H](Cc1c[nH]cn1)NC(=O)[C@@H](NC(=O)[C@H](CCCNC(=N)N)NC(=O)[C@@H](N)CO)[C@@H](C)O)[C@@H](C)CC)C(=O)N[C@H](C(=O)N1CCC[C@H]1C(=O)N[C@@H](CC(=O)O)C(=O)N[C@H](C(=O)N[C@@H](CC(N)=O)C(=O)N1CCC[C@H]1C(=O)N[C@@H](C)C(=O)N[C@@H](Cc1c[nH]c2ccccc12)C(=O)N[C@@H](Cc1ccc(O)cc1)C(=O)N[C@@H](C)C(=O)N[C@@H](CO)C(=O)N[C@@H](CCCNC(=N)N)C(=O)NCC(=O)N[C@H](C(=O)N[C@@H](CCCNC(=N)N)C(=O)N1CCC[C@H]1C(=O)N[C@H](C(=O)NCC(=O)N[C@@H](CCCNC(=N)N)C(=O)N[C@@H](Cc1ccccc1)C(N)=O)C(C)C)[C@@H](C)CC)[C@@H](C)CC)[C@@H](C)O)C(=O)O [palm^11-PrRP31] (H-SRTHRHSMEIK([γGlu-Palmitoyl])TPDINPAWYASRGIRPVGRF-NH2; N-terminus assumed) | 238 | 74 | nonsignificant increase | 46% | 52% | 37% | 38 |
